pKi: −log10 of the molar value.

The target of one test is T1, GABAA receptor α1β2γ2 (Homo sapiens, UniProt P14867+P18507).
T1 construct: expressed in transfected cells; host or cells: Xenopus laevis oocytes injected with cRNA
Put plainly: Two-electrode voltage-clamp potentiation of GABA EC10 current in Xenopus oocytes, GABAA1. It counts as cell-based. The note with it: percentage potentiation of GABA EC10 current divided by that of diazepam. A digest of the protocol:
(§1)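 Human GABAA receptors expressed in Xenopus oocytes by cRNA injection (α:β:γ molar ratio ~1:1:10 for α1β2γ2, 1:1:1 for α2β3γ2), recorded 2-10 days later by two-electrode voltage clamp at −60 mV in ND-96, pH 7.5. Modulator preapplied 30 s before GABA at per-oocyte EC10. Peak-current percent potentiation over GABA alone, normalised to diazepam.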
(In general: Two-electrode voltage clamp holds a large cell at a set potential and records current.)

The target in test [1] is T2, GABAA2 receptors (α2, β3, γ2 receptor subunits transfected into Sf9 cells) (Homo sapiens, UniProt P18507+P47869).
T2 construct: host or cells: Sf9 cells (membranes)
T2 sequence (P47869 29-451): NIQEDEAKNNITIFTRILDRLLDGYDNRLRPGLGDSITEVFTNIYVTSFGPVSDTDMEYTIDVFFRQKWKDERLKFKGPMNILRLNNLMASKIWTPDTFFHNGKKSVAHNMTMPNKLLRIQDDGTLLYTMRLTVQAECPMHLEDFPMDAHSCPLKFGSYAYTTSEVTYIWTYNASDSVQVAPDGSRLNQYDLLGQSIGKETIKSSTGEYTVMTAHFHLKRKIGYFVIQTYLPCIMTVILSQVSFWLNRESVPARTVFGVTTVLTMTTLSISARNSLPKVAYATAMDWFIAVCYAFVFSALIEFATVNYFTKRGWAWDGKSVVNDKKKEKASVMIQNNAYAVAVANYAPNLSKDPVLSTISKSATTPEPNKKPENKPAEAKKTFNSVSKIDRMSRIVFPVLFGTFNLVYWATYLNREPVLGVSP
T2 sequence (P28472 26-473 partner): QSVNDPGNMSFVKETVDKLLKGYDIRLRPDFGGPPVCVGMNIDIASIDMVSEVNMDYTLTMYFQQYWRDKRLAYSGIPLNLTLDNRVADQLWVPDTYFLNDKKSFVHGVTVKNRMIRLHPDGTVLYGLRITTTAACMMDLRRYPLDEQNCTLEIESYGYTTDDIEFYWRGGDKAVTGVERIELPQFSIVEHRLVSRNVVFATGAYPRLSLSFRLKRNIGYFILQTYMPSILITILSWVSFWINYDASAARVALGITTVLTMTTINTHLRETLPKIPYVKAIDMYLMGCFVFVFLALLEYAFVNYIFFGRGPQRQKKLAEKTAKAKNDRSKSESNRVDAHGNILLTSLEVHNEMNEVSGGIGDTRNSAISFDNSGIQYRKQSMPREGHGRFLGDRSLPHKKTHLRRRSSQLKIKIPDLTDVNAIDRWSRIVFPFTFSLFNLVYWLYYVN
T2 sequence (P18507 40-475): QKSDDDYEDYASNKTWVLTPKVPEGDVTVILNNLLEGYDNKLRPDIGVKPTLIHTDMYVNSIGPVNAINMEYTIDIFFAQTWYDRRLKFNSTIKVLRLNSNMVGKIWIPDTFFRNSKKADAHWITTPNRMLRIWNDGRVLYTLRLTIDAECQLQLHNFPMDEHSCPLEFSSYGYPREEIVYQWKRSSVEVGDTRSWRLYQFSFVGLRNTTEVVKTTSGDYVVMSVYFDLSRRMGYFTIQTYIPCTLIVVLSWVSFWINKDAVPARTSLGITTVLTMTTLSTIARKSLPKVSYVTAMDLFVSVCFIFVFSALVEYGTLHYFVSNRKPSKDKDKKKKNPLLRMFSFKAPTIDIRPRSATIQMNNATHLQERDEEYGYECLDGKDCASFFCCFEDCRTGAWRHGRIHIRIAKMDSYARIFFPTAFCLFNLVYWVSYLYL
Description: GABAA2 Binding Method ([3H]-Flunitrazepam displacement). To be noted: [3H]-Flunitrazepam ~2 nM, α2β3γ2 Sf9 membranes, 1 hr at 4° C. Put shortly:
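Membranes from Sf9 cells expressing α2β3γ2 GABAA receptors incubated with ~2 nM (final) [3H]-flunitrazepam and test compound 1 h at 4 °C, then filtered on GF/B plates with cold-buffer washes. Flumazenil-defined controls; percent of control, IC50 and Ki calculated.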

A further test deals with T3, GABAA receptor α2β3γ2 (Homo sapiens, UniProt P18507+P47869).
T3 construct: expressed in transfected cells; host or cells: Xenopus laevis oocytes injected with cRNA
T3 sequence (P47869 29-451): as the sequence (P47869 29-451) above
T3 sequence (P28472 26-473 partner): as the sequence (P28472 26-473 partner) above
T3 sequence (P18507 40-475): as the sequence (P18507 40-475) above
Put plainly: Two-electrode voltage-clamp potentiation of GABA EC10 current in Xenopus oocytes, GABAA2. It counts as cell-based. The note with it: percentage potentiation of GABA EC10 current divided by that of diazepam. A digest of the protocol:
as §1

[2] abbreviates: listed as 9-amino-6-fluoro-5-(2-fluoro-6-methoxyphenyl)-2-methyl-2,3-dihydro-1H-pyrrolo[3.

T1 sequence (P14867 28-456): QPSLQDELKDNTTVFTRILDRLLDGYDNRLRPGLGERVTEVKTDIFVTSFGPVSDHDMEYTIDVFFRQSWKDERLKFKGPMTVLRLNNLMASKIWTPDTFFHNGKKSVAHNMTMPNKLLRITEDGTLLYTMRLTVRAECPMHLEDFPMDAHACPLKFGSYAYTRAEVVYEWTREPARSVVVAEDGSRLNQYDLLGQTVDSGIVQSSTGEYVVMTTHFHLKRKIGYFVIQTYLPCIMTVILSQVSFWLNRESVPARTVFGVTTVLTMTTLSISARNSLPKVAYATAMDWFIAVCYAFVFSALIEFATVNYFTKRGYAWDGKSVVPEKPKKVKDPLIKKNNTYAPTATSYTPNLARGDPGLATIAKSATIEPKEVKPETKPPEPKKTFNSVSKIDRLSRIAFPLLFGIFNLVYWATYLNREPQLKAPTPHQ
T1 sequence (P47870 25-512 partner limits assumed): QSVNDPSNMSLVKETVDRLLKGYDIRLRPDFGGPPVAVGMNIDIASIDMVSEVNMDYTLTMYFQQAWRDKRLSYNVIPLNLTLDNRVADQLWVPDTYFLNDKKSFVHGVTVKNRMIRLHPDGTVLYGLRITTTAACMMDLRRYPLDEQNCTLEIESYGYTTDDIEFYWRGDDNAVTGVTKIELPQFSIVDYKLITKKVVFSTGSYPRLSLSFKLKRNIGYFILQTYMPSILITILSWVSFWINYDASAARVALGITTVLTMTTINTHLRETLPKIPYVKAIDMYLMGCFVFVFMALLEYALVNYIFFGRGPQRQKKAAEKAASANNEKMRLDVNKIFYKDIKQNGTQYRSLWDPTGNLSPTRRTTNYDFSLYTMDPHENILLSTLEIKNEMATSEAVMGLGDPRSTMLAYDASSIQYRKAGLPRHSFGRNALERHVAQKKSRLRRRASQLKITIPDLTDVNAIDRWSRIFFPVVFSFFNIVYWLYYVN
T1 sequence (P18507 40-475): as the sequence (P18507 40-475) above

A word on the pKi: it is the Ki on a negative log10 scale, so that one unit is a factor of ten. The low end stands for a high Ki, the high end for a low Ki. Turning to `COc1ccc(OC)c(CN2Cc3nc4c(-c5cnccc5OC)cccc4c(N)c3C2=O)c1` [Example 39, 9-Amino-2-(2,5-dimethoxybenzyl)-5-(4-methoxypyridin-3-yl)-2,3-dihydropyrrolo[3,4-b]quinolin-1-one], on GABAA receptor α1β2γ2, the “Relative Potentiation for GABAA1” value stood at 0.18. Besides, the pKi in test [1] was 8.29. Besides, on GABAA receptor α2β3γ2, the “Relative Potentiation for GABAA2” value stood at 0.26.

For `COc1ccncc1-c1c(F)ccc2c(N)c3c(nc12)CN(C1CC1)C3=O` [Example 41, 9-Amino-2-cyclopropyl-6-fluoro-5-(4-methoxypyridin-3-yl)-2,3-dihydropyrrolo[3,4-b]quinolin-1-one], the “Relative Potentiation for GABAA1” value at GABAA receptor α1β2γ2 is 0.13. The molecule further gave a negative-log Ki (pKi) in test [1] of 8.63. Also, the “Relative Potentiation for GABAA2” value at GABAA receptor α2β3γ2 worked out at 0.28.

For `COc1ncc(-c2c(F)ccc3c(N)c4c(nc23)CN(C2CC2)C4=O)c(OC)n1` [Example 44, 9-Amino-2-cyclopropyl-5-(2,4-dimethoxypyrimidin-5-yl)-6-fluoro-2,3-dihydropyrrolo[3,4-b]quinolin-1-one], the “Relative Potentiation for GABAA1” value at GABAA receptor α1β2γ2 was found to be 0.13. In addition, the pKi in test [1] is 8.18. Besides, the “Relative Potentiation for GABAA2” value on GABAA receptor α2β3γ2 is listed as 0.35.

As to `CCN1Cc2nc3c(-c4ccccc4OC)c(F)ccc3c(N)c2C1=O` [Example 45, 9-Amino-2-ethyl-6-fluoro-5-(2-methoxyphenyl)-2,3-dihydropyrrolo[3,4-b]quinolin-1-one], the “Relative Potentiation for GABAA1” value at GABAA receptor α1β2γ2 was −0.11. This molecule had a negative logarithm of the Ki (pKi) in test [1] of 7.88. Besides, the “Relative Potentiation for GABAA2” value on GABAA receptor α2β3γ2 is 0.26.

With `CCN1Cc2nc3c(-c4cc(F)ccc4OC)c(F)ccc3c(N)c2C1=O` [Example 46, 9-Amino-2-ethyl-6-fluoro-5-(5-fluoro-2-methoxyphenyl)-2,3-dihydropyrrolo[3,4-b]quinolin-1-one], the “Relative Potentiation for GABAA1” value on GABAA receptor α1β2γ2 is recorded as −0.008. Besides, the negative-log Ki (pKi) in test [1] was 7.76. Moreover, at GABAA receptor α2β3γ2, the “Relative Potentiation for GABAA2” value is 0.3.

As for `CCN1Cc2nc3c(-c4ccc(OC)c(OC)c4)c(F)ccc3c(N)c2C1=O` [Example 47, 9-Amino-5-(3,4-dimethoxyphenyl)-2-ethyl-6-fluoro-2,3-dihydropyrrolo[3,4-b]quinolin-1-one], the “Relative Potentiation for GABAA1” value at GABAA receptor α1β2γ2 was found to be 0.068. In test [1], this molecule had a pKi of 8.34. In addition, the “Relative Potentiation for GABAA2” value on GABAA receptor α2β3γ2 is listed as 0.27.

Take `COc1ccc(Cl)cc1-c1cccc2c(N)c3c(nc12)CN(C1CCC1)C3=O` [Example 49, 9-Amino-5-(5-chloro-2-methoxyphenyl)-2-cyclobutyl-2,3-dihydropyrrolo[3,4-b]quinolin-1-one]: the “Relative Potentiation for GABAA1” value on GABAA receptor α1β2γ2 is recorded as 0.12. For the same molecule, in test [1], the pKi was 8.60. On GABAA receptor α2β3γ2, the “Relative Potentiation for GABAA2” value was determined as 0.58.

Take `COc1ccc(-c2cccc3c(N)c4c(nc23)CN(C2CCC2)C4=O)c(OC)c1` [Example 53, 9-Amino-2-cyclobutyl-5-(2,4-dimethoxyphenyl)-2,3-dihydropyrrolo[3,4-b]quinolin-1-one]: the “Relative Potentiation for GABAA1” value at GABAA receptor α1β2γ2 is 0.1. For the same molecule, in test [1], the pKi was 8.67. For the same molecule, the “Relative Potentiation for GABAA2” value at GABAA receptor α2β3γ2 stood at 0.24.

As to `CCCN1Cc2nc3c(-c4c(F)cccc4F)cccc3c(N)c2C1=O` [Example 56, 9-Amino-5-(2,6-difluorophenyl)-2-propyl-2,3-dihydro-pyrrolo[3,4-b]quinolin-1-one], at GABAA receptor α1β2γ2, the “Relative Potentiation for GABAA1” value is given as 0.083. The same molecule showed a pKi in test [1] of 8.30. In addition, the “Relative Potentiation for GABAA2” value on GABAA receptor α2β3γ2 was 0.24.

`CCN1Cc2nc3c(-c4cnccc4OC)cccc3c(N)c2C1=O` [Example 57, 9-Amino-2-ethyl-5-(4-methoxypyridin-3-yl)-2,3-dihydropyrrolo[3,4-b]quinolin-1-one]: the “Relative Potentiation for GABAA1” value at GABAA receptor α1β2γ2 is recorded as 0.079. Also, the pKi in test [1] is 7.67. Besides, on GABAA receptor α2β3γ2, the “Relative Potentiation for GABAA2” value stood at 0.26.

On to `CCN1Cc2nc3c(-c4cccnc4OC)c(F)ccc3c(N)c2C1=O` [Example 58, 9-Amino-2-ethyl-6-fluoro-5-(2-methoxypyridin-3-yl)-2,3-dihydropyrrolo[3,4-b]quinolin-1-one], for which the “Relative Potentiation for GABAA1” value at GABAA receptor α1β2γ2 is listed as −0.055. The molecule also gave a pKi in test [1] of 8.39. On GABAA receptor α2β3γ2, the “Relative Potentiation for GABAA2” value worked out at 0.28.

As for `Nc1c2c(nc3c(-c4cc(Cl)ccc4Cl)cccc13)CN(C1CC1)C2=O` [Example 59, 9-Amino-2-cyclopropyl-5-(2,5-dichlorophenyl)-2,3-dihydropyrrolo[3,4-b]quinolin-1-one], the “Relative Potentiation for GABAA1” value at GABAA receptor α1β2γ2 is on record as 0.094. The same molecule showed a pKi in test [1] of 7.94. The “Relative Potentiation for GABAA2” value on GABAA receptor α2β3γ2 is reported as 0.25.

For `COc1ccc(F)c(-c2cccc3c(N)c4c(nc23)CN(C2CC2)C4=O)c1` [Example 60, 9-Amino-2-cyclopropyl-5-(2-fluoro-5-methoxyphenyl)-2,3-dihydropyrrolo[3,4-b]quinolin-1-one], at GABAA receptor α1β2γ2, the “Relative Potentiation for GABAA1” value came to 0.079. The molecule further had a pKi in test [1] of 7.86. Also, the “Relative Potentiation for GABAA2” value on GABAA receptor α2β3γ2 is 0.33.

In the case of `COc1ccc(F)cc1-c1c(F)ccc2c(N)c3c(nc12)CN(C1CC1)C3=O` [Example 61, 9-Amino-2-cyclopropyl-6-fluoro-5-(5-fluoro-2-methoxyphenyl)-2,3-dihydropyrrolo[3,4-b]quinolin-1-one], the “Relative Potentiation for GABAA1” value on GABAA receptor α1β2γ2 stood at 0.08. This molecule also had a negative-log Ki (pKi) in test [1] of 8.13. In addition, the “Relative Potentiation for GABAA2” value on GABAA receptor α2β3γ2 amounted to 0.23.

With `COc1ccncc1-c1cccc2c(N)c3c(nc12)CN(C1CCC1)C3=O` [Example 62, 9-Amino-2-cyclobutyl-5-(4-methoxypyridin-3-yl)-2,3-dihydropyrrolo[3,4-b]quinolin-1-one], the “Relative Potentiation for GABAA1” value at GABAA receptor α1β2γ2 is 0.09. Besides, the negative logarithm of the Ki (pKi) in test [1] is 8.74. The “Relative Potentiation for GABAA2” value at GABAA receptor α2β3γ2 turned out to be 0.44.

For the molecule `COc1ccccc1-c1cccc2c(N)c3c(nc12)CN(C1CCC1)C3=O` [Example 63, 9-Amino-2-cyclobutyl-5-(2-methoxyphenyl)-2,3-dihydropyrrolo[3,4-b]quinolin-1-one], the “Relative Potentiation for GABAA1” value on GABAA receptor α1β2γ2 turned out to be 0.038. Besides, the negative logarithm of the Ki (pKi) in test [1] was 8.45. The “Relative Potentiation for GABAA2” value at GABAA receptor α2β3γ2 came to 0.25.

Turning to `COc1ccc(-c2cccc3c(N)c4c(nc23)CN(C2CCC2)C4=O)c(OC)n1` [Example 64, 9-Amino-2-cyclobutyl-5-(2,6-dimethoxypyridin-3-yl)-2,3-dihydropyrrolo[3,4-b]quinolin-1-one], on GABAA receptor α1β2γ2, the “Relative Potentiation for GABAA1” value came to 0.06. In addition, the pKi in test [1] was 8.42. Also, the “Relative Potentiation for GABAA2” value on GABAA receptor α2β3γ2 is reported as 0.31.

Take `COc1ccc(CN2Cc3nc4c(-c5c(F)cccc5OC)cccc4c(N)c3C2=O)cc1OC` [Example 65, 9-Amino-2-(3,4-dimethoxybenzyl)-5-(2-fluoro-6-methoxyphenyl)-2,3-dihydropyrrolo[3,4-b]quinolin-1-one]: the “Relative Potentiation for GABAA1” value on GABAA receptor α1β2γ2 is recorded as 0.092. In test [1], this molecule showed a negative logarithm of the Ki (pKi) of 8.57. The “Relative Potentiation for GABAA2” value on GABAA receptor α2β3γ2 was 0.2.

Consider `COc1ncccc1-c1cccc2c(N)c3c(nc12)CN(C1CC1)C3=O` [Example 66, 9-Amino-2-cyclopropyl-5-(2-methoxypyridin-3-yl)-2,3-dihydropyrrolo[3,4-b]quinolin-1-one], for which the “Relative Potentiation for GABAA1” value on GABAA receptor α1β2γ2 is 0.056. In test [1], the pKi was 7.45. The “Relative Potentiation for GABAA2” value at GABAA receptor α2β3γ2 turned out to be 0.33.

For `COc1cccc(F)c1-c1c(F)ccc2c(N)c3c(nc12)CN(C)C3=O` [Example 70, 9-Amino-6-fluoro-5-(2-fluoro-6-methoxyphenyl)-2-methyl-2,3-dihydropyrrolo[3,4-b]quinolin-1-one], the “Relative Potentiation for GABAA1” value on GABAA receptor α1β2γ2 (setting [2]) came to 0.02. For the same molecule, the pKi in test [1] was 8.09. On GABAA receptor α2β3γ2 (setting [2]), the “Relative Potentiation for GABAA2” value was 0.16.

Turning to `CCN1Cc2nc3c(-c4cc(OC)ccc4F)cccc3c(N)c2C1=O` [Example 72, 9-Amino-2-ethyl-5-(2-fluoro-5-methoxyphenyl)-2,3-dihydropyrrolo[3,4-b]quinolin-1-one], the “Relative Potentiation for GABAA1” value at GABAA receptor α1β2γ2 was 0.02. Further, the negative logarithm of the Ki (pKi) in test [1] is 7.88. Besides, the “Relative Potentiation for GABAA2” value at GABAA receptor α2β3γ2 was found to be 0.12.

With `N#Cc1ccccc1-c1cccc2c(N)c3c(nc12)CN(C1CCC1)C3=O` [Example 76, 2-(9-Amino-2-cyclobutyl-1-oxo-2,3-dihydro-1H-pyrrolo[3,4-b]quinolin-5-yl)benzonitrile], the “Relative Potentiation for GABAA1” value at GABAA receptor α1β2γ2 is listed as −0.036. The molecule further had a pKi in test [1] of 9.01. The “Relative Potentiation for GABAA2” value at GABAA receptor α2β3γ2 is recorded as 0.12.

Regarding `COc1cc(-c2cccc3c(N)c4c(nc23)CN(C2CCC2)C4=O)c(OC)nn1` [Example 84, 9-Amino-2-cyclobutyl-5-(3,6-dimethoxypyradazin-4-yl)-2,3-dihydropyrrolo[3,4-b]quinolin-1-one], the “Relative Potentiation for GABAA1” value on GABAA receptor α1β2γ2 came out at 0.088. Further, the pKi in test [1] is 9.13. Further, on GABAA receptor α2β3γ2, the “Relative Potentiation for GABAA2” value was 0.42.

Regarding `COc1cc(-c2cccc3c(N)c4c(nc23)CN(C2CCC2)C4=O)c(C#N)cn1` [Example 96, 4-(9-Amino-2-cyclobutyl-1-oxo-2,3-dihydro-1H-pyrrolo[3,4-b]quinolin-5-yl)-6-methoxyniconitrile], on GABAA receptor α1β2γ2, the “Relative Potentiation for GABAA1” value worked out at 0.066. The same molecule showed a negative-log Ki (pKi) in test [1] of 7.82. For the same molecule, the “Relative Potentiation for GABAA2” value on GABAA receptor α2β3γ2 stood at 0.36.

The record behind these values is patent publication US20080318943A1, “Compounds and Uses Thereof - 848” (ASTRAZENECA AB, priority 2007, published 2008).
